Here are results for 65 molecules from a melting point compilation (Tetko et al.; mined from patent text by program, amines drawn as free bases though some values may be those of a salt).

Some results are limits rather than exact numbers.

As to `COc1ccc(Cc2cccc(C(O)(C3=NCCCN3)c3ccccc3)c2)cc1` (stereo not given), the melting point came out at 92 °C.

Molecule `Cc1cnnc2ccccc12` had a melting point of 70 to 72 °C.

The molecule `CCCC1=NC(=NOC(=O)NC)SC1(C)CC` (stereo not given) yielded a melting point of 124 to 126 °C.

`Cc1nc2cnccc2n1-c1ccc(OCc2cccc(SCc3nc4cc(F)ccc4s3)c2)cc1` had a melting point of 119 to 121 °C.

Turning to `CCN(CC)CCOC(=O)c1ccc(/C=C(\C)c2ccc3c(c2)C(C)(C)CCC3(C)C)cc1`, the melting point is 65 to 66 °C.

The molecule `CC(=O)Oc1ccc2c(c1)cc(C(=O)O)n2C(C)=O` yielded a melting point of 142 to 145 °C.

As for `CC1CC(N)=C(C#N)C1C` (stereo not given), the melting point was in the range of 92 to 100 °C.

Molecule `COc1ccc(C2CCOCC2)cc1NC(=S)c1ncc[nH]1` displayed a melting point of 189 to 190 °C.

The molecule `CC1(C2CCCC2)Cc2cc(O)c(Cl)c(Cl)c2C1=O` (stereo not given) showed a melting point of 190 to 194 °C.

`CN(c1nc(N)no1)c1c(Cl)cccc1Cl` came in with a melting point of 177 to 178 °C.

Regarding `O=c1[nH]c2ncc(-c3ccccc3)nc2n1CC1CCCCC1`, the melting point is 253 to 255 °C.

With `CC1(C)CNc2cc3[nH]c(-c4cccnc4)nc3cc21`, the melting point was 213 to 215 °C.

Consider `O=C(O)CCC(=O)c1ccc(SCCCBr)cc1`, for which the melting point was 91 to 94 °C.

Turning to `COc1ccc(C(=O)N2c3ccccc3SC2C#N)cc1` (stereo not given), the melting point is 122 to 123 °C.

`CCc1nnc(-c2ccc(N)cc2)n1-c1ccc(OC)cc1`: the melting point was 210 °C.

As for `O=C(O)CCC(=NOCc1ccc(OCc2csc(-c3ccccc3)n2)cc1)c1ccccc1`, the melting point was in the range of 104 to 105 °C.

Regarding `NC(CCN1CCC(O)(Cc2ccccc2)CC1)C(=O)c1ccccc1` (stereo not given), the melting point is 123 to 124 °C.

`CCOC(=O)c1[nH]c2cc(Cl)cc(Cl)c2c1C(=O)OCC` had a melting point of 167 to 170 °C.

Consider `Cc1sc(NC=O)c(C#N)c1Cl`, for which the melting point is 258 °C.

`CC1(C)CC(=C(c2ccc(O)cc2)c2ccc(/C=C/C(=O)O)cc2)CC(C)(C)C1` had a melting point of 219 to 220 °C.

The molecule `CCCCCc1c(O)ccc2c1OCCC2=O` returned a melting point of 132 to 134 °C.

Take `O=C(O)CC1=Cc2ccccc2C1`: the melting point lay in the range of 114 to 115 °C.

On to `Cc1ccc(C(Cl)=NO)cc1`, for which the melting point was 69 to 71 °C.

In turn, `Cc1c(C(F)(F)F)ncn(-c2cc([N+](=O)[O-])c(F)cc2F)c1=O` had a melting point of 157 °C.

Molecule `O=C(/C=C/c1ccc(C(=O)O)cc1)NOC1CCCCO1` (stereo not given) displayed a melting point of 182 °C.

In the case of `CCOC(=O)C(Cc1ccc(O)cc1)Oc1ccc(Cl)cc1` (stereo not given), the melting point was in the range of 90 to 93 °C.

Take `CC(=O)N1CCC(NC(=O)Nc2ccccc2CCc2cc(C(C)(C)C)c(O)c(C(C)(C)C)c2)CC1`: the melting point lay in the range of 218 to 221 °C.

On to `COc1ccccc1-n1c(-c2sc(Nc3ccc(Cl)cc3)nc2C)nc2ccccc2c1=O`, for which the melting point is 225 to 226 °C.

In turn, `Cc1[nH]cnc1/C=C1\CCCc2c(c3ccccc3n2C)C1=O` came in with a melting point of 230 to 232 °C.

Molecule `O=C(O)COc1ccccc1OCCC(c1ccccc1)(c1ccccc1)c1ccccc1` had a melting point of 137 to 139 °C.

In the case of `O=S(=O)(Nc1ccc(Oc2ccc3cccnc3c2)cc1)c1ccc(Cl)cc1`, the melting point is 208 °C.

On to `CS(=O)(=O)Nc1ccc(SCCCCl)cc1`, for which the melting point is 61 to 63 °C.

Molecule `O=[N+]([O-])c1c(O)c(Cl)cc(F)c1-c1ncc(C(F)(F)F)cc1Cl` had a melting point of 67 to 72 °C.

Consider `CN(C)c1ccc2c(c1)O/C(=C1/Oc3cc(N(C)C)ccc3C1=O)C2=O`, for which the melting point was > 320 °C.

`COCN(c1cccc2cc(-c3nc[nH]n3)n(COC)c12)S(=O)(=O)c1cccs1` gave a melting point of 97 to 99 °C.

In turn, `Cc1noc(C(=O)NC(C)C)c1C(=O)O` yielded a melting point of 86 to 92 °C.

Molecule `CC1(C)CCc2c(N3CCCC3)nc3sc4c(NCC(=O)NCC5CCCO5)ncnc4c3c2C1` (stereo not given) returned a melting point of 210 to 211 °C.

In the case of `Cc1nsc(NC(=O)C(C)c2ccc(O)c(N)c2)c1Cl` (stereo not given), the melting point fell in the range of 222 to 223 °C.

`NC(=O)C1CCN(c2c(Br)cncc2-c2ccccc2)CC1` yielded a melting point of 220 to 222 °C.

For the molecule `CCOC(=O)c1nn(-c2ccc(OC(F)F)cc2)c2cccc(Cl)c2c1=O`, the melting point amounted to 134 °C.

Consider `CC1(c2cccc(F)c2C(=O)NCCCl)CCC1`, for which the melting point lay in the range of 108 to 110 °C.

`CN1CC(CCN2CCN(c3ccc(C(F)(F)F)cc3)CC2)OC1=O` (stereo not given) showed a melting point of 116 to 117 °C.

In turn, `O=C(c1ccccc1)c1ccc2nc3c(C(=O)O)cccc3nc2c1` came in with a melting point of 236 to 237 °C.

Molecule `COc1cc(Cl)c(C(=O)Nc2ccc(C(C)(C)C#N)cc2)cc1OC` displayed a melting point of 142 to 144 °C.

In the case of `O=C1c2ccccc2C(=O)c2c(NCCc3ccc(O)cc3)ccc(NCCc3ccc(O)cc3)c21`, the melting point lay within 240 to 242 °C.

In turn, `CC(=O)NC1CCc2c(C(=O)O)[nH]c(C(=O)O)c2C1` (stereo not given) registered a melting point of 233 to 235 °C.

In turn, `COC(=O)NCc1nc(-c2ccc3c(c2)Nc2ccccc2S3)cs1` gave a melting point of 151 to 153 °C.

Consider `c1ccc(CP(Cc2ccccc2)Cc2ccccc2-c2ccccc2CP(Cc2ccccc2)Cc2ccccc2)cc1`, for which the melting point lay in the range of 163 to 167 °C.

In turn, `CCOC(=O)c1c(O)c2cc(C)ccc2n(Cc2ccccc2)c1=O` showed a melting point of 113 °C.

Take `CC(C)(C)OC(=O)c1ccc(C#Cc2cnc3nc(N)nc(O)c3c2)cc1`: the melting point was > 260 °C.

On to `C#CCOc1ccc(CCNC(=O)C(O)Cc2ccc(C)cc2)cc1OC` (stereo not given), for which the melting point was 85 °C.

Take `COc1ccc2cc([C@H](C)C(=O)OCC(C)(CO)CO)ccc2c1`: the melting point was 105 °C.

Turning to `O=C(O)C=C1CCC(n2nc(-c3c(-c4ccccc4)nn4ccccc34)ccc2=O)CC1` (stereo not given), the melting point fell in the range of 188 to 190 °C.

The molecule `O=C(O)c1ccc(Oc2ccc3c(c2)CCN(C2CCN(C4CCC4)CC2)C3=O)cc1` registered a melting point of 255 to 256 °C.

Turning to `Clc1cnc2c(NCc3ccccc3)nc(Cl)nc2c1`, the melting point lay in the range of 169 to 170 °C.

`O=c1ncc(Cl)cn1CS(=O)c1ccc(Cl)cc1` (stereo not given) registered a melting point of 262 °C.

On to `COC(=O)c1ccc(COc2ccc3cc(-c4csc(-c5ccccc5)n4)ccc3c2Br)cc1`, for which the melting point was 173 to 175 °C.

Molecule `CN(C)C(=O)Nc1ccc(SCCc2ccccc2)c(Cl)c1` showed a melting point of 133 to 134 °C.

Regarding `Oc1cc(-c2ccccc2)nc(O)n1`, the melting point lay in the range of 195 to 200 °C.

For `C=CN1Cc2ccccc2-c2ccc(Cl)cc2C1=O`, the melting point lay within 170 to 172 °C.

The molecule `COc1ccc(S(=O)(=O)Nc2ccc(C)cc2)c2c1[nH]c1ccccc12` yielded a melting point of 199 to 203 °C.

With `O=C(NC(Cc1ccc(-c2cccc3ccccc23)cc1)C(=O)O)C(CS)Cc1ccccc1` (stereo not given), the melting point amounted to 158 °C.

`CCOC(=O)c1c(Cl)nc(-c2ccc(N)cc2)c(N)c1C(=O)OCC`: the melting point was found to be 137 °C.

`C=CC(CC(O)C(CC1CCCCC1)NC(=O)C(Cc1c[nH]cn1)NC(=O)C(CN)(Cc1ccccc1)Cc1ccccc1)C(C)C` (stereo not given) displayed a melting point of 89 °C.

`CC(C)CN(Cc1nc(-c2ncn3c2[C@@H]2CCN2C(=O)c2c(Cl)cccc2-3)no1)CC(C)C`: the melting point was in the range of 125 to 140 °C.

A word on the melting point: it is the temperature, or range, at which the solid turns liquid.
